Reference: paper PMC10224544, “Synthesis, Structural Elucidation and Pharmacological Applications of Cu(II) Heteroleptic Carboxylates” (Pharmaceuticals, 2023)

Experiments:
DPPH scavenging assay [1] = conditions: for DPPH Free Radical Scavenging Ability: mean ± S.E.M, n = 3
Excerpt: The antioxidant potential of the free acids and their Cu(II) carboxylates was explored via the DPPH method using ascorbic acid as a reference. The DPPH, with a single unpaired electron, is capable of accepting a hydrogen or electron and gives a strong absorption at 517 nm. The absorption generally decreases when it accepts a hydrogen or electron from an antioxidant, forming a stable molecule. The results given in Table 5 indicate that the compounds under study show a moderate level of antioxidant potential. This activity may be attributed to the various structural and electronic factors like coordination geometry, redox properties, chelate ring size, degree of unsaturation, etc.. The transfer of proton or electron from an antioxidant to DPPH results in the formation of species that undergo other reactions like coupling, fragmentation, and addition, which affect the rate and stoichiometry of the reaction.
The compounds under study were subjected to DPPH scavenging ability test as per cited literature. A 0.004% solution of reagent DPPH was added to the different concentrations of tested compounds (i.e., 125, 250, 500 and 1000 μg/mL) and the reaction mixture was incubated subsequently for about thirty minutes in dark. Ascorbic acid was used as positive control. The UV-3000 O.R.I. Germany was used to record the change in absorption of the reaction mixture at 517 nm and the percentage scavenging ability of the compounds under study was determined using formula: % scavenging activity =Absorbance of control−Absorbance of compounds /Absorbance of control×100
The experiments were repeated thrice. The GraphPad Prism® (version 4.0, Sandiego, CA, USA) was used to calculate the IC50 values.

[2] = Hydrogen peroxide scavenging assay; conditions: for H2O2 free radical scavenging ability: mean ± S.E.M, n = 3
Experimental: In addition to DPPH the ligand acids and their complexes were also evaluated for their peroxide scavenging ability test. Hydrogen peroxide (H2O2) is a biologically important, non-radical reactive oxygen species (ROS) that can influence several cellular processes. It is a weak oxidizing agent and can inactivate a few enzymes directly, usually via oxidation of essential thiol (-SH) groups. It can cross cell membranes rapidly, and inside the cell, H2O2 probably reacts with Fe^2+ (and possibly Cu^2+) ions to form the hydroxyl radical, which may be the origin of many of its toxic effects. It is, therefore, biologically advantageous for cells to control the amount of hydrogen peroxide that is allowed to accumulate.
The ligand acids and their Cu(II) carboxylates were further subjected to H2O2 scavenging ability test potential by following the procedure as per cited literature. A 2 mM solution of H2O2 was made in 50 mM phosphate buffer having a pH 7.4. In the next step, 0.1 mL of the screened compounds was added to the 0.3 mL (50 mM) of phosphate buffer, then 0.6 mL of H2O2 was added and the solution was vortexed. After following the incubation period of 10 min, the absorption was 230 nm in comparison to the blank.

[3] = biological target: acetylcholinesterase (AChE) (Electrophorus electricus, UniProt O42275); assay: biochemical; type: biochemical
Chain of acetylcholinesterase (AChE) (O42275 24-633): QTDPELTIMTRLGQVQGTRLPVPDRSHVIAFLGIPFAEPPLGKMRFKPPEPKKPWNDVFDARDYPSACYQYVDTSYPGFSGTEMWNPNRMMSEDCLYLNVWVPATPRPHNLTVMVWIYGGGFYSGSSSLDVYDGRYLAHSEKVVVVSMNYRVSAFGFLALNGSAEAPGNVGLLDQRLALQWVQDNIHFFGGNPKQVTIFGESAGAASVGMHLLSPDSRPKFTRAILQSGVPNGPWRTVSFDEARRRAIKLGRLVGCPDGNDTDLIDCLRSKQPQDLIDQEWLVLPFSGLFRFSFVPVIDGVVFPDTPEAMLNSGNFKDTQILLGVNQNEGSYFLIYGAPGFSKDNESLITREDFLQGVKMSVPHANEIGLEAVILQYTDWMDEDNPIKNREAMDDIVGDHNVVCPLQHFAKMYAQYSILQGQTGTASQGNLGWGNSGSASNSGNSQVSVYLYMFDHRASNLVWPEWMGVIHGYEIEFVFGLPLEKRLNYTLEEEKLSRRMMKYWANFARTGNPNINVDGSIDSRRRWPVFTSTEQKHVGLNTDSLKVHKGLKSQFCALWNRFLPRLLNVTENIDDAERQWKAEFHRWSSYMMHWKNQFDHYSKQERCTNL
Experimental: The synthesized compounds were evaluated for acetylcholinesterase (ACh) and butyrylcholinesterase (BCh) enzyme inhibitory activities.
(§1) The enzymes acetylcholinesterase (AChE) and butyrylcholinesterase (BChE) play an important role in the transfer of signals and physiological function. They assist acetylcholine to hydrolyze and produce choline and acetyl group in synaptic region. So, they are considered as targets in the management of Alzheimer’s disease. Herein, the compounds under study were evaluated for their potential to inhibit acetylthiocholine iodide (AChI) and butyrylthiocholine iodide (BChI) enzymes.
(§2) The well-known Ellman’s assay was implemented to evaluate the inhibitory potential using acetylthiocholine iodide (AChI) and butyrylthiocholine iodide (BChI) as substrates, respectively. The basic principle of the assay is the hydrolysis of acetylthiocholine iodide and butyrylthiocholine iodide by their corresponding enzymes, resulting in the formation of 5-thio-2-nitrobenzoate anion.
(§3) To carry out the assay, 0.1 M buffer solution with pH 8 was prepared as per the cited literature where the pH was adjusted using KOH (potassium hydroxide). Using the freshly prepared buffer and following the dilution, final concentrations of 0.03 U/mL for AChE (518 U/mg solid) and 0.01 U/mL for BChE (7–16 U/mg) were obtained. […] After that, the final solution of each of the AChE and BChE was prepared in distilled water in the presence of […] DTNB and were stored at 8 °C. The experiment was performed by taking 205 µL of inhibitor (tested compound) along with 5 µL of prepared solutions of enzymes, followed by the addition of 5 μL DTNB reagent. They were then incubated for about 15 min in a water bath at a temperature of 30 °C. Later on, 5 µL substrate solution was added to them which were subjected to absorption check at 412 nm. […] The temperature of the spectrophotometer was adjusted at 30 °C and then, following the reaction time of 4 min, the absorbance values were noted after regular intervals. The experiment was repeated, and change in absorption with time was used to calculate the percentage activity of enzyme and enzyme inhibitor [59]. The p values, or calculated probability levels, are categorized as: 5% (p < 0.05), 1% (p < 0.01) and 0.1% (p < 0.001). p < 0.05 means statistically significant and p < 0.001 means highly statistically significant.

[4] = biological target: butyrylcholinesterase (BChE) (Equus caballus, UniProt P81908); assay: biochemical
Chain of butyrylcholinesterase (BChE) (P81908 whole entry): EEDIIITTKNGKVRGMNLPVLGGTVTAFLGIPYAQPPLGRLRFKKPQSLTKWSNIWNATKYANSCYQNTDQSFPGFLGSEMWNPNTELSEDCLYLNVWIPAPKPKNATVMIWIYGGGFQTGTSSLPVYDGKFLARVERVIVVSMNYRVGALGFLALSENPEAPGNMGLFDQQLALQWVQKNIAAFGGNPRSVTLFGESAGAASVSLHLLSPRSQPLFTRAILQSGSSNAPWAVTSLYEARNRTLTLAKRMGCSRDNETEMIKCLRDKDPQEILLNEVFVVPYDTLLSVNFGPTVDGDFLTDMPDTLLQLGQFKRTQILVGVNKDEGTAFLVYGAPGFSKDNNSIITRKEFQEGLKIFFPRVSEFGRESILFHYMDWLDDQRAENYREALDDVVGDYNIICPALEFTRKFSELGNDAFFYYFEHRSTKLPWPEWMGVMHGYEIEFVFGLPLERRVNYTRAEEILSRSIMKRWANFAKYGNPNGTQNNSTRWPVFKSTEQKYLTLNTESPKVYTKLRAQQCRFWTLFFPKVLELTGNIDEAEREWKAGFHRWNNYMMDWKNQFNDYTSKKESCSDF
Experimental: as §1, §2, §3

DPPH scavenging assay [5] = conditions: Comp. Conc. 62.5 µg/mL; mean ± S.E.M, n = 3

O=C([O-])Cc1ccccc1Cl.O=C([O-])Cc1ccccc1Cl.O=C([O-])Cc1ccccc1Cl.O=C([O-])Cc1ccccc1Cl.Oc1ccncc1.Oc1ccncc1.[Cu+2].[Cu+2] [Complex 3, Cun(2-ClC6H4COO)4(4-OHPy)2]
IC50, DPPH Free Radical Scavenging Ability (DPPH scavenging assay [1]): 21.72 µg/mL
DPPH Free Radical Scavenging Ability (DPPH scavenging assay [1]; Comp. Conc. 125 µg/mL): 62.50 ± 0.44 %
DPPH Free Radical Scavenging Ability (DPPH scavenging assay [1]; Comp. Conc. 250 µg/mL): 66.33 ± 0.33 %
DPPH Free Radical Scavenging Ability (DPPH scavenging assay [1]; Comp. Conc. 500 µg/mL): 74.66 ± 1.20 %
DPPH Free Radical Scavenging Ability (DPPH scavenging assay [1]; Comp. Conc. 1000 µg/mL): 79.00 ± 0.16 %
IC50, H2O2 free radical scavenging ability [2]: 11.47 µg/mL
H2O2 free radical scavenging ability ([2]; Comp. Conc. 62.5 µg/mL): 61.30 ± 0.52 %
H2O2 free radical scavenging ability ([2]; Comp. Conc. 125 µg/mL): 66.37 ± 0.58 %
H2O2 free radical scavenging ability ([2]; Comp. Conc. 250 µg/mL): 72.29 ± 0.43 %
H2O2 free radical scavenging ability ([2]; Comp. Conc. 500 µg/mL): 78.58 ± 0.56 %
H2O2 free radical scavenging ability ([2]; Comp. Conc. 1000 µg/mL): 84.39 ± 0.60 %
IC50, Inhibition of Acetylcholinesterase [3]: 17 µg/mL
Inhibition of Acetylcholinesterase (%AChE Activity) ([3]; Comp. Conc. 62.5 µg/mL, n = 3): 62.98 ± 0.72 %
Inhibition of Acetylcholinesterase (%AChE Activity) ([3]; Comp. Conc. 125 µg/mL, n = 3): 67.90 ± 0.96 %
Inhibition of Acetylcholinesterase (%AChE Activity) ([3]; Comp. Conc. 250 µg/mL, n = 3): 72.91 ± 0.88 %
Inhibition of Acetylcholinesterase (%AChE Activity) ([3]; Comp. Conc. 500 µg/mL, n = 3): 77.08 ± 0.47 %
Inhibition of Acetylcholinesterase (%AChE Activity) ([3]; Comp. Conc. 1000 µg/mL, n = 3): 81.03 ± 0.35 %
IC50, inhibition of butyrylcholinesterase [4]: 25 µg/mL
inhibition of butyrylcholinesterase (% BChE activity) ([4]; Comp. Conc. 62.5 µg/mL, n = 3): 60.2 ± 0.98 %
inhibition of butyrylcholinesterase (% BChE activity) ([4]; Comp. Conc. 125 µg/mL, n = 3): 63.3 ± 1.10 %
inhibition of butyrylcholinesterase (% BChE activity) ([4]; Comp. Conc. 250 µg/mL, n = 3): 68.2 ± 0.88 %
inhibition of butyrylcholinesterase (% BChE activity) ([4]; Comp. Conc. 500 µg/mL, n = 3): 73.2 ± 0.98 %
inhibition of butyrylcholinesterase (% BChE activity) ([4]; Comp. Conc. 1000 µg/mL, n = 3): 76.8 ± 1.20 %
DPPH Free Radical Scavenging Ability (DPPH scavenging assay [5]): 53.00 ± 0.57 %

O=C(O)Cc1ccccc1Cl [L^1, 2-chlorophenyl acetic acid]
inhibition at 62.5 µg/mL ([3]; Comp. Conc. 62.5 µg/mL, n = 3, read-out: Inhibition of Acetylcholinesterase (%AChE Activity)): 50.35 ± 0.11%
inhibition at 125 µg/mL ([3]; Comp. Conc. 125 µg/mL, n = 3, read-out: Inhibition of Acetylcholinesterase (%AChE Activity)): 54.02 ± 0.24%
inhibition at 250 µg/mL ([3]; Comp. Conc. 250 µg/mL, n = 3, read-out: Inhibition of Acetylcholinesterase (%AChE Activity)): 57.34 ± 0.35%
inhibition at 500 µg/mL ([3]; Comp. Conc. 500 µg/mL, n = 3, read-out: Inhibition of Acetylcholinesterase (%AChE Activity)): 62.29 ± 0.32%
inhibition at 1000 µg/mL ([3]; Comp. Conc. 1000 µg/mL, n = 3, read-out: Inhibition of Acetylcholinesterase (%AChE Activity)): 65.39 ± 0.4%
inhibition at 62.5 µg/mL ([4]; Comp. Conc. 62.5 µg/mL, n = 3, read-out: inhibition of butyrylcholinesterase (% BChE activity)): 58.15 ± 0.22%
inhibition at 125 µg/mL ([4]; Comp. Conc. 125 µg/mL, n = 3, read-out: inhibition of butyrylcholinesterase (% BChE activity)): 63.4 ± 0.71%
inhibition at 250 µg/mL ([4]; Comp. Conc. 250 µg/mL, n = 3, read-out: inhibition of butyrylcholinesterase (% BChE activity)): 68.39 ± 0.35%
inhibition at 500 µg/mL ([4]; Comp. Conc. 500 µg/mL, n = 3, read-out: inhibition of butyrylcholinesterase (% BChE activity)): 73.42 ± 0.12%
inhibition at 1000 µg/mL ([4]; Comp. Conc. 1000 µg/mL, n = 3, read-out: inhibition of butyrylcholinesterase (% BChE activity)): 77.73 ± 0.03%
IC50 ([4]; read-out: IC50, inhibition of butyrylcholinesterase (converted)): 258 µM
